Data on two compounds can be found in patent US7462227B2 (E.I. du Pont de Nemours and Company, priority 2005, dated 2008).

In one data set the test system is termites. Particulars: Connick et al 2001; cited from earlier work.

“Also recorded” adds a separate entry of the source.

Procedure for Solubility: In general, solubility of the complex is determined by visual observation, and a complex is considered to be solbilized when a sufficient amount of the complex is dissolved in the solution to permit a desired amount of the complex to be adsorbed on and/or absorbed in the cellulosic material when the treatment thereof occurs.

Turning to `CC(C)Cc1ccc(C(C)C(=O)O)cc1` (centres unmarked) [ibuprofen], in the data set with termites, the toxicity to termites result was “toxic”. In the data set “Solubility”, the “solubility in methanol and ethanol” value is listed as “soluble”; the solubility in water entry is on record as “relatively insoluble; also recorded: only slightly soluble”.
For `CC(C)Cc1ccc(C(C)C(=O)[O-])cc1.[Na+]` (centres unmarked) [sodium ibuprofenate], in the data set “Solubility”, the “solubility in methanol and ethanol” value is reported as “soluble”; the solubility in water result is recorded as “relatively insoluble”.
